The text below walks through data of patent US8680111B2 (Pfizer Inc., priority 2012, dated 2014).

In test [1] the target is T1, human recombinant wild-type ALK kinase domain (amino acids 1093-1411) (Homo sapiens, UniProt Q9UM73).
T1 construct: ALK kinase domain (amino acids 1093-1411); made in house
Put plainly: Wild-type ALK enzyme assay (microfluidic mobility shift). Conditions: ATP 60 μM, competitive inhibition fit, read-out: WT ALK enzyme assay (Ki). Format: biochemical.
Experimental: The reactions were incubated for 1 h at room temperature, stopped by the addition of 0.1 M EDTA, pH 8, and the extent of reactions (˜15-20% conversion with no inhibitor) was determined after electrophoretic separation of the fluorescently labeled peptide substrate and phosphorylated product on an LabChip EZ Reader II (Caliper Life Sciences, Hopkinton, Mass.).

Test [2] concerns the target T2, WT EML4-ALK (NIH-3T3 EML4-ALK wt v1 cells) (Homo sapiens, UniProt Q9UM73).
T2 construct: expressed in transfected cells; the other entry of the earlier key: EML4 (Q9HC35, Echinoderm microtubule-associated protein-like 4)
Put plainly: Cellular phospho-ALK (Tyr1604) ELISA assay for WT EML4-ALK. Format: cell-based. Conditions: 1 hour, read-out: ELISA assay for WT EML4-ALK (IC50).
Experimental: Cellular Phospho-ALK (Tyr1604) ELISA Assay for EML4-ALK:
The cells were maintained at 37° C. in a 5% CO2 incubator in DMEM (Invitrogen, Carlsbad, Calif.) medium supplemented with 1% L-glutamine, 1% penicillin and streptomycin, 1 ug/ml puromycin and 10% new born calf serum (NCS) in T-75 flasks.
Cells were washed with PBS and re-suspended in DMEM medium supplemented with 0.5% NCS and 1% pen/strep and seeded into 96-well plates at density of 20,000 cells/well/100 μl and incubated in the incubator at 37° C. and 5% CO2. After 20 hours of incubation, 100 μl of assay media (DMEM) in presence of designated PF-compounds concentrations or controls (DMSO) were added into plates and incubated for 1 hour in the incubator. Media was then removed and lysis buffer, containing phosphatase inhibitors and phenylmethanesulfonyl fluoride (PMSF), was added to wells and shaken at 4° C. for 30 minutes to generate protein lysates.
A phospho-ALK (Tyr1604) rabbit antibody was coated onto the 96-well microplates. 50 μl of cell lysates were added to the antibody coated plate and incubated at room temperature for 2 hours. Following extensive washing with 0.1% Tween 20 in PBS to remove unbound materials, ALK mouse mAb was added to detect captured phospho-ALK (Tyr1604) and phospho-ALK fusion proteins. Anti-mouse IgG, HRP-linked antibody was then used to recognize the bound detection antibody. Finally, the chemiluminescent reagent was added and incubated for 10 minutes for signal development. The assay plates were read in the Envision plate reader in the luminescent mode. IC50 values were calculated by a concentration-response curve fitting using a four-parameter analytic method.

The target in test [3] is T3, L1196M EML4-ALK (NIH-3T3 EML4-ALK v1 L1196M cells) (Homo sapiens, UniProt Q9UM73, L1196M).
T3 construct: expressed in transfected cells; the other entry of the earlier key: EML4 (Q9HC35, Echinoderm microtubule-associated protein-like 4)
Put plainly: Cellular phospho-ALK (Tyr1604) ELISA assay for L1196M EML4-ALK. Format: cell-based. The settings on record: NIH-3T3 EML4-ALK v1 L1196M cells, 1 hour, phospho-ALK (Tyr1604); read-out: ELISA assay for L1196M EML4-ALK (IC50). A general note: In an ELISA, binding on a coated surface is turned into a signal by an enzyme label.

Test [4] addresses T4, human recombinant L1196M ALK kinase domain (amino acids 1093-1411) (Homo sapiens, UniProt Q9UM73, L1196M).
T4 construct: ALK kinase domain (amino acids 1093-1411); made in house
Nature of the test: L1196M mutant ALK enzyme assay (microfluidic mobility shift). Type of test: biochemical. Conditions: ATP 60 μM, 0.5 nM enzyme, competitive inhibition fit; read-out: L1196M ALK enzyme assay (Ki).

A value given as a limit tells only on which side of the number the result lay.

Regarding `CCc1snc2c1-c1cnc(N)c(c1)O[C@H](C)c1cc(F)ccc1C(=O)N(C)C2` [Example 110, (10R)-7-amino-3-ethyl-12-fluoro-10,16-dimethyl-16,17-dihydro-8,4-(metheno)[1,2]thiazolo[4,3-h][2,5,11]benzoxadiazacyclotetradecin-15(10H)-one], the inhibition constant (Ki) in test [1] worked out at 0.56 nM; in test [4] it was 7.3 nM. Besides, the IC50 was 9.99 nM in test [2] and 447 nM in test [3].
As for `CC1Oc2cc(F)ccc2C(=O)N(C)Cc2nn(C)c(C#N)c2-c2cnc(N)c1c2` (single isomer, unassigned) [Example 77, 7-amino-12-fluoro-2,9,16-trimethyl-15-oxo-2,15,16,17-tetrahydro-9H-8,4-(metheno)pyrazolo[4,3-h][1,5,11]benzoxadiazacyclotetradecine-3-carbonitrile], the results for the Ki in test [1] and in test [4] were 75 nM and 45.8 nM, respectively. Besides, the 50% inhibitory concentration (IC50) in test [2] turned out to be 3390 nM; in test [3] it was 3320 nM.
As to `CCn1ncc2c1-c1cnc(N)c(n1)O[C@H](C)c1cc(F)ccc1C(=O)N(C)C2` [Example 49, (10R)-7-amino-3-ethyl-12-fluoro-10,16-dimethyl-16,17-dihydro-3H-8,4-(azeno)pyrazolo[3,4-h][2,5,11]benzoxadiazacyclotetradecin-15(10H)-one], the inhibitory constant (Ki) in test [1] was determined as 0.17 nM; in test [4], 1.5 nM. For the same molecule, the IC50 came out at 4.08 nM in test [2] and 80.8 nM in test [3].
With `CN1Cc2nn(C)c(C#N)c2-c2cnc(N)c(c2)OC(CF)c2cc(F)ccc2C1=O` (single isomer, unassigned) [Example 85, 7-amino-12-fluoro-10-(fluoromethyl)-2,16-dimethyl-15-oxo-10,15,16,17-tetrahydro-2H-8,4-(metheno)pyrazolo[4,3-h][2,5,11]benzoxadiazacyclotetradecine-3-carbonitrile], the figures for the Ki in test [1] and in test [4] were 0.07 nM and 0.13 nM, respectively. Also, the IC50 in test [2] was 0.55 nM; in test [3], 6.72 nM.
For the molecule `CN1Cc2c(c(C#N)nn2C)-c2cnc(N)c(n2)OC(CF)c2ccccc2C1=O` (single isomer, unassigned) [Example 127], the Ki was determined as 0.099 nM in test [1] and 0.52 nM in test [4]. The IC50 in test [2] worked out at 2.5 nM; in test [3], 65 nM.
For `CCn1nnc2c1-c1cnc(N)c(c1)O[C@H](C)c1cc(F)ccc1C(=O)N(C)C2` [Example 133, (10R)-7-amino-3-ethyl-12-fluoro-10,16-dimethyl-16,17-dihydro-3H-4,8-(metheno)[1,2,3]triazolo[4,5-h][2,5,11]benzoxadiazacyclotetradecin-15(10H)-one], in that order: 3.06 nM, 32.8 nM, 95.8 nM and 997 nM.
Consider `CC1Cc2cc(cnc2N)-c2c(nn(C)c2C#N)CN(C)C(=O)c2ccc(F)cc21` (single isomer, unassigned) [Example 63, 7-amino-12-fluoro-2,10,16-trimethyl-15-oxo-2,9,10,15,16,17-hexahydro-8,4-(metheno)pyrazolo[3,4-d][2,8]benzodiazacyclotetradecine-3-carbonitrile], for which the results for the Ki in test [1] and in test [4] were 0.12 nM and 0.13 nM, respectively. Moreover, the IC50 is 1.95 nM in test [2] and 8.7 nM in test [3].
As for `CC1Cc2cc(cnc2N)-c2c(nn(C)c2C(N)=O)CN(C)C(=O)c2ccc(F)cc21` (stereo not shown) [Example 62, 7-amino-12-fluoro-2,10,16-trimethyl-15-oxo-2,9,10,15,16,17-hexahydro-8,4-(metheno)pyrazolo[3,4-d][2,8]benzodiazacyclotetradecine-3-carboxamide], the Ki in test [1] worked out at 137 nM; in test [4], 253 nM. The IC50 in test [2] was 7610 nM; in test [3], > 10000 nM.
For `CCCn1nnc2c1-c1cnc(N)c(c1)O[C@H](C)c1cc(F)ccc1C(=O)N(C)C2` [Example 41, (10R)-7-amino-12-fluoro-10,16-dimethyl-3-propyl-16,17-dihydro-3H-8,4-(metheno)[1,2,3]triazolo[4,5-h][2,5,11]benzoxadiazacyclotetradecin-15(10H)-one], in that order: 1.5 nM, 19 nM, 33.1 nM and 680 nM.
For `CCc1onc2c1-c1cnc(N)c(n1)O[C@H](C)c1cc(F)ccc1C(=O)N(C)C2` [Example 48, (10R)-7-amino-3-ethyl-12-fluoro-10,16-dimethyl-16,17-dihydro-8,4-(azeno)[1,2]oxazolo[4,3-h][2,5,11]benzoxadiazacyclotetradecin-15(10H)-one] the same measures were 0.2 nM, 1.2 nM, 6.75 nM and 68.9 nM.
For `COc1nn(C)c2c1-c1cnc(N)c(n1)OCc1cc(F)ccc1C(=O)N(C)C2C` (single isomer, unassigned) [Example 123, 7-amino-12-fluoro-3-methoxy-1,16,17-trimethyl-16,17-dihydro-1H-8,4-(azeno)pyrazolo[4,3-h][2,5,11]benzoxadiazacyclotetradecin-15(10H)-one], in that order: 205 nM, 333 nM, 4790 nM and > 10000 nM.
Regarding `CC1Oc2cc(cnc2N)-c2ccccc2CN(C)C(=O)c2ccc(F)cc21` (stereo not shown) [Example 8, 8-amino-3-fluoro-5,17-dimethyl-16,17-dihydro-7,11-(metheno)dibenzo[g,l]-[1,4,10]-oxadiazacyclotetradecin-18(5H)-one], the Ki in test [1] was 0.9 nM; in test [4] it was 10 nM. Moreover, the IC50 was 12.1 nM in test [2] and 680 nM in test [3].
Turning to `COc1nn(C)c2c1-c1cnc(N)c(c1)OC(CF)c1cc(F)ccc1C(=O)N(C)C2` (single isomer, unassigned) [Example 86, 7-amino-12-fluoro-10-(fluoromethyl)-3-methoxy-1,16-dimethyl-16,17-dihydro-1H-8,4-(metheno)pyrazolo[4,3-h][2,5,11]benzoxadiazacyclotetradecin-15(10H)-one], the Ki was < 0.2 nM in test [1] and 0.1 nM in test [4]. Also, the IC50 was 0.45 nM in test [2] and 2.57 nM in test [3].
Consider `COc1nccc2c1-c1cnc(N)c(n1)OC(C)c1cc(F)ccc1C(=O)N(C)C2` (single isomer, unassigned) [Example 30, 8-amino-13-fluoro-4-methoxy-11,17-dimethyl-17,18-dihydro-9,5-(azeno)pyrido[3,4-h][2,5,11]benzoxadiazacyclotetradecin-16(11H)-one], for which the Ki is < 0.2 nM in test [1] and 0.67 nM in test [4]. Also, the 50% inhibitory concentration (IC50) in test [2] amounted to 2.64 nM; in test [3], 67.2 nM.
For “7-amino-3-tert-butyl-1,10,16-trimethyl-16,17-dihydro-1H-8,4-(metheno)-pyrazolo[4,3-g]pyrido[2,3-l][1,4,10]oxadiazacyclotetradecin-15(10H)-one [Example 120]”, the Ki in test [1] turned out to be 146 nM; in test [4] it was 821 nM. The 50% inhibitory concentration (IC50) in test [2] was 2110 nM; in test [3] it was > 10000 nM.
For `C[C@H]1Oc2cc(cnc2N)-c2c(nn(C)c2C#N)CN(C2CC2)C(=O)c2ccc(F)cc21` [Example 55, (10R)-7-amino-16-cyclopropyl-12-fluoro-2,10-dimethyl-15-oxo-10,15,16,17-tetrahydro-2H-8,4-(metheno)pyrazolo[4,3-h][2,5,11]benzoxadiazacyclotetradecine-3-carbonitrile] the same measures were < 0.07 nM, 0.24 nM, 1.03 nM and 13.4 nM.
For `C[C@H]1Oc2cc(cnc2N)-c2c(nnn2C2CCC2)CN(C)C(=O)c2ccc(F)cc21` [Example 136, (10R)-7-amino-3-cyclobutyl-12-fluoro-10,16-dimethyl-16,17-dihydro-3H-8,4-(metheno)[1,2,3]triazolo[4,5-h][2,5,11]benzoxadiazacyclotetradecin-15(10H)-one] the same measures were 0.6 nM, 4.8 nM, 28.5 nM and 419 nM.
With `C[C@H]1Oc2cc(cnc2N)-c2c(nn(C)c2C#N)CN(C)Cc2ccc(F)cc21` [Example 36, (10R)-7-amino-12-fluoro-2,10,16-trimethyl-10,15,16,17-tetrahydro-2H-4,8-(metheno)pyrazolo[4,3-h][2,5,11]benzoxadiazacyclotetradecine-3-carbonitrile], the inhibition constant Ki in test [1] was < 0.2 nM; in test [4], 0.56 nM. In addition, the IC50 in test [2] was 0.18 nM; in test [3] it was 2.64 nM.
For the molecule `C[C@H]1Oc2cc(cnc2N)-c2c(nc3ccccn23)CN(C)C(=O)c2ccc(F)cc21` [Example 50, (5R)-8-amino-3-fluoro-5,19-dimethyl-18,19-dihydro-7,11-(metheno)pyrido-[2′,1′:2,3]imidazo[4,5-h][2,5,11]benzoxadiazacyclotetradecin-20(5H)-one], the Ki came out at 0.14 nM in test [1] and 1.2 nM in test [4]. Besides, the figures for the IC50 in test [2] and in test [3] were 2.37 nM and 29.7 nM, respectively.

What is called Ki is a measure of affinity in units of concentration, obtained from inhibition or displacement. As a reminder, the IC50 is the concentration at which inhibition is half-maximal.
